Reference: patent publication US9133207B2, “Tetrandrine derivatives with substituted 5-carbon, preparation method and use thereof” (Hangzhou Bensheng Pharmaceutical Co., Ltd., priority 2011, dated 2015)
Values after ≈ are worked out from the molar mass of the structure shown.

What was measured:
[1] = system: H9 (acute lymphoblastic leukemia, ALL); test: Leukemia cell growth inhibition, MTT, 72 h (Example 5); format: cell-based, human; conditions: Homo sapiens; 72 h, MTT
In short: (§1)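 Viability read by MTT after 72 h of compound treatment at 37 °C under 5% CO2; each well seeded with 6000 cells in 1640 medium plus 10% fetal bovine serum, compounds at several concentrations.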

[2] = system: Jurkat (acute lymphoblastic leukemia, ALL); test: as above; format: cell-based, human; conditions: Homo sapiens, Jurkat; 72 h, MTT
In short: as §1

[3] = system: K562/adr (drug-resistant, chronic myeloid leukemia, CML); test: as above; format: cell-based, human; conditions: Homo sapiens, K562/Adr; 72 h, MTT
In short: as §1

[4] = system: Kasumi-1 (acute myeloid leukemia M2 type, AML-M2); test: as above; format: cell-based, human; conditions: Homo sapiens, Kasumi 1
In short: as §1

[5] = system: NB4 (acute promyelocytic leukemia, AML); test: as above; format: cell-based, human; conditions: Homo sapiens; 72 h, MTT
In short: as §1

[6] = system: RPMI8226 (multiple myeloma); test: Multiple myeloma cell growth inhibition, MTT, 72 h (Example 6); format: cell-based, human; conditions: Homo sapiens, RPMI-8226; 72 h, MTT, RPMI8226
In short: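 Viability was read by MTT after 72 h of compound exposure at 37 °C, 5% CO2. Each well held 6000 RPMI8226 cells in 1640 medium containing 10% fetal bovine serum, with derivatives added at various concentrations.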

[7] = system: CaES-17 (esophageal cancer cell); test: Solid tumor cell growth inhibition, MTT, 72 h (Example 7); format: cell-based, human; conditions: Homo sapiens, CaEs17; 72 h, MTT, CAES-17
In short: (§2)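 Each line is plated at 4000 cells per well in high-glucose DMEM supplemented with 10% FBS. After 24 h settling, derivatives at several concentrations are mixed in and cultured 72 h; MTT then gives viable cells, with untreated wells set to 100%.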

MG63 (osteosarcoma) = test: as above; format: cell-based, human; conditions: Homo sapiens; 72 h, MTT, MG-63
In short: as §2

[8] = system: PANC-1 (pancreatic cancer); test: as above; format: cell-based, human; conditions: Homo sapiens; 72 h, MTT, PANC-1
In short: as §2

PC-3 (prostate cancer) = test: as above; format: cell-based, human; conditions: Homo sapiens; 72 h, MTT, PC-3
In short: as §2

A549 (human lung cancer) = test: as above; format: cell-based; conditions: Homo sapiens; 72 h, MTT, A549
In short: as §2

[9] = system: Becap37 (human breast cancer cell); test: as above; format: cell-based; conditions: Homo sapiens; 72 h, MTT, Becap-37
In short: as §2

[10] = system: Huh7 (human liver cancer cell); test: as above; format: cell-based; conditions: Homo sapiens; 72 h, MTT, Huh-7
In short: as §2

[11] = system: MGC 803 (human gastric cancer cell); test: as above; format: cell-based; conditions: Homo sapiens
In short: as §2

[12] = system: RKO (human colon adenocarcinoma cell); test: as above; format: cell-based; conditions: Homo sapiens; 72 h, MTT, RKO
In short: as §2

IC50 [1] [µg/mL]	IC90 [1] [µg/mL]	IC50 [2] [µg/mL]	IC90 [2] [µg/mL]	IC50 [3] [µg/mL]	IC90 [3] [µg/mL]	IC50 [4] [µg/mL]	IC90 [4] [µg/mL]	IC50 [5] [µg/mL]	IC90 [5] [µg/mL]	IC50 [6] [µg/mL]	IC90 [6] [µg/mL]	IC50 [7] [µg/mL]	IC90 [7] [µg/mL]	IC50 (MG63 (osteosarcoma)) [µg/mL]	IC90 (MG63 (osteosarcoma)) [µg/mL]	IC50 [8] [µg/mL]	IC90 [8] [µg/mL]	IC50 (PC-3 (prostate cancer)) [µg/mL]	IC90 (PC-3 (prostate cancer)) [µg/mL]	other results	SMILES
1.7 (≈ 2.31 µM)	4.68 (≈ 6.36 µM)	3.91 (≈ 5.31 µM)	12.7 (≈ 17.3 µM)	3.54 (≈ 4.81 µM)	12.4 (≈ 16.8 µM)	1.76 (≈ 2.39 µM)	8.69 (≈ 11.8 µM)	1.43 (≈ 1.94 µM)	6.61 (≈ 8.98 µM)	0.28 (≈ 0.38 µM)	0.76 (≈ 1.03 µM)	3.43 (≈ 4.66 µM)	27.4 (≈ 37.3 µM)	1.38 (≈ 1.88 µM)	4.84 (≈ 6.58 µM)	6.54 (≈ 8.89 µM)	14.7 (≈ 19.9 µM)	5.39 (≈ 7.32 µM)	8.99 (≈ 12.2 µM)	IC50 (A549 (human lung cancer)): 2.79 µg/mL (≈ 3.79 µM); IC90 (A549 (human lung cancer)): 11.2 µg/mL (≈ 15.2 µM); IC50 [9]: 4.76 µg/mL (≈ 6.47 µM); IC90 [9]: 11.5 µg/mL (≈ 15.6 µM); IC50 [10]: 3.1 µg/mL (≈ 4.21 µM); IC90 [10]: 4.95 µg/mL (≈ 6.73 µM); IC50 [11]: 4.44 µg/mL (≈ 6.03 µM); IC90 [11]: 23 µg/mL (≈ 31.3 µM); IC50 [12]: 1.77 µg/mL (≈ 2.41 µM); IC90 [12]: 4.03 µg/mL (≈ 5.48 µM)	COc1ccc2cc1Oc1ccc(cc1)C[C@H]1c3cc(c(OC)cc3CCN1C)Oc1c(OC)c(OC)c(CN3CCC(O)CC3)c3c1[C@H](C2)N(C)CC3 [BS-TE-308]
2.29 (≈ 3.3 µM)	3.99 (≈ 5.75 µM)	3.15 (≈ 4.54 µM)	9.19 (≈ 13.2 µM)	1.97 (≈ 2.84 µM)	12 (≈ 17.3 µM)	1.33 (≈ 1.92 µM)	5.63 (≈ 8.11 µM)	0.83 (≈ 1.2 µM)	4 (≈ 5.76 µM)	0.18 (≈ 0.259 µM)	1.74 (≈ 2.51 µM)	4.05 (≈ 5.84 µM)	25.6 (≈ 36.9 µM)	1.89 (≈ 2.72 µM)	4 (≈ 5.76 µM)	6.31 (≈ 9.09 µM)	13.2 (≈ 19 µM)	6.04 (≈ 8.7 µM)	8 (≈ 11.5 µM)	IC50 (A549 (human lung cancer)): 1.89 µg/mL (≈ 2.72 µM); IC90 (A549 (human lung cancer)): 9.07 µg/mL (≈ 13.1 µM); IC50 [9]: 2.5 µg/mL (≈ 3.6 µM); IC90 [9]: 7.86 µg/mL (≈ 11.3 µM); IC50 [10]: 3.5 µg/mL (≈ 5.04 µM); IC90 [10]: 4.9 µg/mL (≈ 7.06 µM); IC50 [11]: 3.17 µg/mL (≈ 4.57 µM); IC90 [11]: 11.8 µg/mL (≈ 17 µM); IC50 [12]: 1.96 µg/mL (≈ 2.82 µM); IC90 [12]: 4.25 µg/mL (≈ 6.12 µM)	COc1ccc2cc1Oc1ccc(cc1)C[C@H]1c3cc(c(OC)cc3CCN1C)Oc1c(OC)c(OC)c(CNC(C)C)c3c1[C@H](C2)N(C)CC3 [BS-TE-311]
2.6 (≈ 3.66 µM)	4.83 (≈ 6.8 µM)	4.53 (≈ 6.38 µM)	11 (≈ 15.6 µM)	4.78 (≈ 6.73 µM)	10.4 (≈ 14.7 µM)	1.99 (≈ 2.8 µM)	7.72 (≈ 10.9 µM)	1.63 (≈ 2.3 µM)	5.66 (≈ 7.97 µM)	0.3 (≈ 0.423 µM)	2.07 (≈ 2.92 µM)	2.4 (≈ 3.38 µM)	20.8 (≈ 29.4 µM)	1.41 (≈ 1.99 µM)	3.11 (≈ 4.38 µM)	5.89 (≈ 8.3 µM)	14.7 (≈ 20.7 µM)	6.41 (≈ 9.03 µM)	8 (≈ 11.3 µM)	IC50 (A549 (human lung cancer)): 1.96 µg/mL (≈ 2.76 µM); IC90 (A549 (human lung cancer)): 9.36 µg/mL (≈ 13.2 µM); IC50 [9]: 2.95 µg/mL (≈ 4.16 µM); IC90 [9]: 9.79 µg/mL (≈ 13.8 µM); IC50 [10]: 3.07 µg/mL (≈ 4.32 µM); IC90 [10]: 4.98 µg/mL (≈ 7.02 µM); IC50 [11]: 3.63 µg/mL (≈ 5.11 µM); IC90 [11]: 10.5 µg/mL (≈ 14.7 µM); IC50 [12]: 1.64 µg/mL (≈ 2.31 µM); IC90 [12]: 3.39 µg/mL (≈ 4.78 µM)	COc1ccc2cc1Oc1ccc(cc1)C[C@H]1c3cc(c(OC)cc3CCN1C)Oc1c(OC)c(OC)c(CNCC(C)O)c3c1[C@H](C2)N(C)CC3 (stereo partly drawn) [BS-TE-315]
1.08 (≈ 1.5 µM)	2.19 (≈ 3.03 µM)	1.67 (≈ 2.31 µM)	3.97 (≈ 5.5 µM)	1.1 (≈ 1.52 µM)	3.24 (≈ 4.49 µM)	1.22 (≈ 1.69 µM)	3.83 (≈ 5.31 µM)	0.83 (≈ 1.15 µM)	3.48 (≈ 4.82 µM)	0.14 (≈ 0.194 µM)	0.7 (≈ 0.97 µM)	1.58 (≈ 2.19 µM)	9.61 (≈ 13.3 µM)	1 (≈ 1.39 µM)	2.24 (≈ 3.1 µM)	3.29 (≈ 4.56 µM)	5.41 (≈ 7.49 µM)	2.26 (≈ 3.13 µM)	4.06 (≈ 5.62 µM)	IC50 (A549 (human lung cancer)): 1.83 µg/mL (≈ 2.53 µM); IC90 (A549 (human lung cancer)): 6.34 µg/mL (≈ 8.78 µM); IC50 [9]: 2.31 µg/mL (≈ 3.2 µM); IC90 [9]: 4 µg/mL (≈ 5.54 µM); IC50 [10]: 1.42 µg/mL (≈ 1.97 µM); IC90 [10]: 1.94 µg/mL (≈ 2.69 µM); IC50 [11]: 2.29 µg/mL (≈ 3.17 µM); IC90 [11]: > 10 µg/mL; IC50 [12]: 0.9 µg/mL (≈ 1.25 µM); IC90 [12]: 2.4 µg/mL (≈ 3.32 µM)	COc1ccc2cc1Oc1ccc(cc1)C[C@H]1c3cc(c(OC)cc3CCN1C)Oc1c(OC)c(OC)c(CN3CCC(O)C3)c3c1[C@H](C2)N(C)CC3 (stereo partly drawn) [BS-TE-322]
